Measurements published in US20250346613A1, “BORIC ACID PROTEASOME INHIBITOR AND USE THEREOF” (ARTIVILA BIOPHARMA, priority 2022, published 2025).

System: MM.1S cell strain
Test: Inhibitory activity of cell strain (CellTiter-Glo)
Type: cell-based
Conditions: Homo sapiens, MM1.S, 72 h incubation
Experimental: The cells used in this experiment were MM.1S cell strain and the detection reagent was CellTiter-Glo (Promega). […] The experimental process was described below. MM.1S cells in the logarithmic growth phase and in a good status were digested into individual cells by trypsin, centrifuged to remove the supernatant, and counted. Cells were diluted and 100 μL of cell suspension per well was added to a 96-well enzyme-coated plate at 1×10^5 cells per well. The wells containing only RPMI1640 complete medium were set as blank control. The 96-well plate was transferred to a 37° C. incubator containing 5% CO2 for 24 h of incubation.
The compound was accurately weighed and dissolved in DMSO to a concentration of 10^−2 M. 10 μL of compound was pipetted to 190 μL of DMSO to given a 5×10^−4 M compound. 6 μL of the compound (5×10^−5 M) was pipetted to a new 96-well microplate containing 194 μL of RPMI1640 complete medium and diluted in a 3-fold gradient dilution. 50 μL of the diluted compound was transferred to the 96-well microplate containing the cells such that the final compound concentrations were 5×10^−7 M, 1.67×10^−7 M, 5.55×10^−8 M, 1.85×10^−8 M, 6.17×10^−9 M, 2.06×10^−9 M, 6.86×10^−10 M, 2.29×10^−10 M, and 0 M. For the 0 M, no compound was added, and the same concentration of DMSO was added. The marketed drug bortezomib was used as a positive control. The 96-well microplate added with compounds was placed in the 37° C. incubator for 72 h of incubation.
At the predetermined detection time, the 96-well microplate to be detected was placed at room temperature, added with 40 μL of detection reagent (CellTiter-Glo) per well, and covered with a dark lid or piece of aluminium foil. The contents were mixed on an orbit oscillator for 10 min for complete cell lysis, with a vibration speed of 150 rpm. Luminescence values were detected on a multifunctional microplate reader (BioTek Synergy H1 Hybrid Multi-Mode Reade).
The data were exported and the percentage inhibition was calculated according to the following formula: Inhibition rate=(maximum signal value-compound signal value)/(maximum signal value−blank signal value)×100%, • wherein maximum signal was obtained from alone DMSO-treated cells, and blank signal was obtained from wells containing only culture medium.

Row | IC50 | Structure (SMILES)
1 | 200 to 500 nM | Cc1ccc(CNC(=O)/C=C/C(=O)N[C@@H](CC(C)C)B(O)O)cc1 [Example 11]
2 | 200 to 500 nM | O=C(/C=C/C(=O)N[C@@H](Cc1ccccc1)B(O)O)NCc1cc(Cl)ccc1Cl [Example 12]
3 | 50 to 200 nM | [2H]/C(C(=O)NCc1ccccc1)=C(/[2H])C(=O)N[C@@H](Cc1ccccc1)B(O)O [Example 17, (R,E)-(1-(4-(benzylamino)-4-oxobut-2-enamido-2,3-D2)-2-phenylethyl)boric acid]
4 | 50 to 200 nM | COc1cccc(CCNC(=O)C(C)C(=O)N[C@@H](Cc2ccccc2)B(O)O)c1 (stereo partly drawn) [Example 61, ((1R)-1-(3-((3-methoxyphenylethyl)amino)-2-methyl-3-oxopropionamido)-2-phenylethyl)boric acid]
5 | 50 to 200 nM | COc1cccc(NC(=O)C(C)C(=O)N[C@@H](Cc2ccccc2)B(O)O)c1 (stereo partly drawn) [Example 67, ((1R)-1-(3-((3-methoxyphenyl)amino)-2-methyl-3-oxopropionamido)-2-phenylethyl)boric acid]
6 | 50 to 200 nM | COc1ccc(NC(=O)C(C)C(=O)N[C@@H](Cc2ccc(C)cc2)B(O)O)cc1 (stereo partly drawn) [Example 70, ((1R)-1-(3-((4-methoxyphenyl)amino)-2-methyl-3-oxopropionamido)-2-(p-tolyl)ethyl)boric acid]
7 | ≤ 50 nM | COc1cccc(CNC(=O)C(Cc2ccccc2)C(=O)N[C@@H](Cc2coc3ccccc23)B(O)O)c1 (stereo partly drawn) [Example 71, ((1R)-2-(benzofuran-3-yl)-1-(2-benzyl-3-((3-methoxybenzyl)amino)-3-oxopropionamido)ethyl)boric acid]
8 | ≤ 50 nM | COc1cccc(CNC(=O)C(Cc2ccccc2)C(=O)N[C@@H](Cc2ccc(-c3ccccc3)cc2)B(O)O)c1 (stereo partly drawn) [Example 72, ((1R)-2-([1,1′-biphenyl]-4-yl)-1-(2-benzyl-3-((3-methoxybenzyl)amino)-3-oxopropionamido)ethyl)boric acid]
9 | ≤ 50 nM | CC(C(=O)NCc1cccc(OC(F)(F)F)c1)C(=O)N[C@@H](Cc1ccc(-c2ccccc2)cc1)B(O)O (stereo partly drawn) [Example 74, ((1R)-2-([1,1′-biphenyl]-4-yl)-1-(2-methyl-3-oxo-3-((3-(trifluoromethoxy)benzyl)amino)propanamido)ethyl)boronic acid]
10 | ≤ 50 nM | COc1cccc(CNC(=O)C(C(=O)N[C@@H](Cc2ccc(-c3ccccc3)cc2)B(O)O)C(C)C)c1 (stereo partly drawn) [Example 76, ((1R)-2-([1,1′-biphenyl]-4-yl)-1-(2-((3-methoxybenzyl)carbamoyl)-3-methylbutanamido)ethyl)boric acid]
11 | ≤ 50 nM | CC(C(=O)NCc1cccc(C(F)(F)F)c1)C(=O)N[C@@H](Cc1ccc(-c2ccccc2)cc1)B(O)O (stereo partly drawn) [Example 78, ((1R)-2-([1,1′-biphenyl]-4-yl)-1-(2-methyl-3-oxo-3-((3-(trifluoromethyl)benzyl)amino)propionamido)ethyl)boric acid]
12 | ≤ 50 nM | Cc1ccc(C[C@H](NC(=O)C(C)C(=O)NCc2cccc(OC(F)(F)F)c2)B(O)O)cc1 (stereo partly drawn) [Example 86, ((1R)-1-(2-methyl-3-oxo-3-((3-(trifluoromethoxy)benzyl)amino)propionamido)-2-(p-tolyl)ethyl)boric acid]
13 | ≤ 50 nM | O=C(NCc1cccc(OC(F)(F)F)c1)C(F)C(=O)N[C@@H](Cc1ccccc1)B(O)O (stereo partly drawn) [Example 95, ((1R)-1-(2-fluoro-3-oxo-3-((3-(trifluoromethoxy)benzyl)amino)propionamido)-2-phenylethyl)boric acid]
14 | ≤ 50 nM | Cc1ccc(C[C@H](NC(=O)C(F)C(=O)NCc2cccc(OC(F)(F)F)c2)B(O)O)cc1 (stereo partly drawn) [Example 96, ((1R)-1-(2-fluoro-3-oxo-3-((3-(trifluoromethoxy)benzyl)amino)propionamido)-2-(p-tolyl)ethyl)boric acid]
15 | ≤ 50 nM | O=C(NCc1cccc(OC(F)(F)F)c1)C(F)C(=O)N[C@@H](Cc1coc2ccccc12)B(O)O (stereo partly drawn) [Example 97, ((1R)-2-(Benzofuran-3-yl)-1-(2-fluoro-3-oxo-3-((3-(trifluoromethoxy)benzyl)amino)propionamido)ethyl)boric acid]
16 | 200 to 500 nM | Cc1ccc(C[C@H](NC(=O)C(F)(F)C(=O)NCc2cccc(OC(F)(F)F)c2)B(O)O)cc1 [Example 98, (R)-(1-(2,2-difluoro-3-oxo-3-((3-(trifluoromethoxy)benzyl)amino)propionamido)-2-(p-tolyl)ethyl)boric acid]
17 | ≤ 50 nM | COc1cccc(CCNC(=O)C(F)C(=O)N[C@@H](Cc2coc3ccccc23)B(O)O)c1 (stereo partly drawn) [Example 101, ((1R)-2-(Benzofuran-3-yl)-1-(2-fluoro-3-((3-methoxyphenylethyl)amino)-3-oxopropionamido)ethyl)boric acid]
18 | ≤ 50 nM | COc1cccc(CNC(=O)C(F)C(=O)N[C@@H](Cc2ccccc2)B(O)O)c1 (stereo partly drawn) [Example 102, ((1R)-1-(2-fluoro-3-((3-methoxybenzyl)amino)-3-oxopropionamido)-2-phenylethyl)boric acid]
19 | ≤ 50 nM | COc1cccc(CNC(=O)C(F)C(=O)N[C@@H](Cc2ccc(C)cc2)B(O)O)c1 (stereo partly drawn) [Example 103, ((1R)-1-(2-fluoro-3-((3-methoxybenzyl)amino)-3-oxopropionamido)-2-(p-tolyl)ethyl)boric acid]
20 | ≤ 50 nM | COc1cccc(CNC(=O)C(F)C(=O)N[C@@H](Cc2coc3ccccc23)B(O)O)c1 (stereo partly drawn) [Example 104, ((1R)-2-(benzofuran-3-yl)-1-(2-fluoro-3-((3-methoxybenzyl)amino)-3-oxopropionamido)ethyl)boric acid]
